System: CAPAN-1 xenografts
Assay: CAPAN-1 xenografts, BRCA 2 deficient (−/−) compared with not deficient (+/+): single dose PLX038A or irinotecan, tumor volume
Assay type: in vivo, mice
Conditions: irinotecan 137 μg/kg single i.p.; FIGS. 4B vs 4C
Description: Female NCr nude mice (N CrTac:NCr-Foxnt1^nu; ˜6-7 weeks old) from Taconic Bioscience (Cambridge City, Ind.) were housed at the UCSF Preclinical Therapeutics Core vivarium (San Francisco, Calif.). All animal studies were carried out in accordance with UCSF Institutional Animal Care and Use Committee. Tumor xenografts were established by subcutaneous injection with MX-1 tumor cells (2×10^6 cells in 100 μl of serum free medium mixed 1:1 with Matrigel) into the right flank of female NCr nude mice.
Groups (N=4-5/group) were dosed when the group average reached 100-200 mm^3 in size. […] For groups receiving the combination, daily BMN673 dosing began on the same day (FIG. 3A) or after a 4-day delay (FIG. 3B) after dosing PLX038A. Tumor volumes (caliper measurement: 0.5×(length×width^2)) and body weights were measured twice weekly. When vehicle control tumors reached ˜3000 mm^3 in size, mice were treated with the combination of a single dose of PLX038A (15 μmol/kg) and daily BMN673 (0.4 μmol/kg) combination with no delay between dosing (FIG. 3A).
MX-1 cells are BRCA 1 deficient and CAPAN-1 cells are supplied as either BRCA 2 deficient (−/−) or not deficient (+/+).

CCc1c2c(nc3ccc(OC(=O)N4CCC(N5CCCCC5)CC4)cc13)-c1cc3c(c(=O)n1C2)COC(=O)[C@]3(O)CC [irinotecan]
effectiveness in BRCA 2 deficient vs non-deficient cells, irinotecan: enhanced

From patent publication US11730836B2, “Synergistic cancer treatment” (priority 2018, dated 2023)
